biological target: T1, chimeric human H3 receptor (Homo sapiens, UniProt Q9Y5N1); assay: Chimeric human H3 receptor screening GTP binding assay (inhibition of histamine-stimulated GTP-gamma35S binding, Example 8); format: biochemical; details: 4 μM of the compound, 1 μM histamine, "†" in Ki of Table II, read-out: percent inhibition of the signal obtained with 1 μM histamine
T1 construct: made in house; host or cells: Sf9 insect cells (baculovirus); P2 membrane preparation
Method in brief: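 Sf9 membranes co-expressing chimeric human H3 receptor and heterotrimeric G-protein, 35 μg per reaction, incubated 60 min at room temperature with 4 μM compound, 1 μM histamine, 10 μM GDP and […] GTP-gamma35S at pH 7.4. Filter-bound radioactivity counted. Result expressed as percent inhibition of the histamine signal after subtracting non-specific binding (10 μM GTP-gammaS).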

T1 sequence (Q9Y5N1 with tags, fused parts or gaps): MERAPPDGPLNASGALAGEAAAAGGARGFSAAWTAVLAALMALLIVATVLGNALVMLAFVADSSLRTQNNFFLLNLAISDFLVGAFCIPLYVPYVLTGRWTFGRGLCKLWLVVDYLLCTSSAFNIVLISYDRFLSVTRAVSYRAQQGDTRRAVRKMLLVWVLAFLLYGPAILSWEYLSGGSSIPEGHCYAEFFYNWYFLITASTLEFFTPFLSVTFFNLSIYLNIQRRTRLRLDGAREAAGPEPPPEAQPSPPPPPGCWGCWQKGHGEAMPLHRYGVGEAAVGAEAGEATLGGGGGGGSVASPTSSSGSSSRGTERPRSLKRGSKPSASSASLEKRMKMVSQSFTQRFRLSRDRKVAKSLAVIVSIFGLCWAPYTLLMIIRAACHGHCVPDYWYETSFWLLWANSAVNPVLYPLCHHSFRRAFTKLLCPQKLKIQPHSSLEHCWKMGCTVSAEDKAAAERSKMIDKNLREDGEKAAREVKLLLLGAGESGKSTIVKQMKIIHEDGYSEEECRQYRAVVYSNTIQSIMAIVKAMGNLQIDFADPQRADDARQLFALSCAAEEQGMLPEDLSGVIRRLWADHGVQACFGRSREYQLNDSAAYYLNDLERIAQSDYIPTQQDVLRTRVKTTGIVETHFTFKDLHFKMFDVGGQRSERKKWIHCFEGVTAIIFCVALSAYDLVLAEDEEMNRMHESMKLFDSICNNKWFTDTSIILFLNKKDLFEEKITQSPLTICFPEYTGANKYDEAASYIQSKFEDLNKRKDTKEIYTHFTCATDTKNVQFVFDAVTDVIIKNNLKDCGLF

inhibition at 4 µM [%]	Compound
≥ 90	COc1cccc(-c2ccc3c(c2)CCN(CC(=O)N2CCN(C4CCCCC4)CC2)C3)c1 [Compound 477, 2-[2-(4-cyclohexylpiperazin-1-yl)-2-oxoethyl]-6-(3-methoxyphenyl)-1,2,3,4-tetrahydroisoquinoline]
≥ 90	O=C(CN1CCc2cc(-c3ccc(OC(F)(F)F)cc3)ccc2C1)N1CCN(C2CCC2)CC1 [Compound 478, 2-[2-(4-cyclobutylpiperazin-1-yl)-2-oxoethyl]-6-[4-(trifluoromethoxy)phenyl]-1,2,3,4-tetrahydroisoquinoline]
≥ 90	O=C(CN1CCc2cc(-c3ccc(OC(F)(F)F)cc3)ccc2C1)N1CCN(C2CCCC2)CC1 [Compound 479, 2-[2-(4-cyclopentylpiperazin-1-yl)-2-oxoethyl]-6-[4-(trifluoromethoxy)phenyl]-1,2,3,4-tetrahydroisoquinoline]
≥ 90	O=C(CN1CCc2cc(-c3ccc(OC(F)(F)F)cc3)ccc2C1)N1CCN(C2CCCCC2)CC1 [Compound 480, 2-[2-(4-cyclohexylpiperazin-1-yl)-2-oxoethyl]-6-[4-(trifluoromethoxy)phenyl]-1,2,3,4-tetrahydroisoquinoline]
≥ 90	CC(C)N1CCN(C(=O)CN2CCc3cc(-c4ccc(OC(F)(F)F)cc4)ccc3C2)CC1 [Compound 481, 2-[2-(4-isopropylpiperazin-1-yl)-2-oxoethyl]-6-[4-(trifluoromethoxy)phenyl]-1,2,3,4-tetrahydroisoquinoline]

same assay, conditions: Table II "Ki", symbol †, 4 μM of the compound, 1 μM histamine, read-out: percent inhibition of the signal obtained with 1 μM histamine

Compound	inhibition at 4 µM [%]
CCOc1cccc(-c2ccc3c(c2)CCN(CC(=O)N2CCN(C4CCCCC4)CC2)C3)c1 [Compound 484, 2-[2-(4-cyclohexylpiperazin-1-yl)-2-oxoethyl]-6-(3-ethoxyphenyl)-1,2,3,4-tetrahydroisoquinoline]	≥ 90
CCOc1cccc(-c2ccc3c(c2)CCN(CC(=O)N2CCN(C(C)C)CC2)C3)c1 [Compound 485, 6-(3-ethoxyphenyl)-2-[2-(4-isopropylpiperazin-1-yl)-2-oxoethyl]-1,2,3,4-tetrahydroisoquinoline]	≥ 90
O=C(CN1CCc2cc(-c3cccc(OC(F)(F)F)c3)ccc2C1)N1CCN(C2CCCC2)CC1 [Compound 491, 2-[2-(4-cyclopentylpiperazin-1-yl)-2-oxoethyl]-6-[3-(trifluoromethoxy)phenyl]-1,2,3,4-tetrahydroisoquinoline]	≥ 90
O=C(CN1CCc2cc(-c3cccc(OC(F)(F)F)c3)ccc2C1)N1CCN(C2CCCCC2)CC1 [Compound 492, 2-[2-(4-cyclohexylpiperazin-1-yl)-2-oxoethyl]-6-[3-(trifluoromethoxy)phenyl]-1,2,3,4-tetrahydroisoquinoline]	≥ 90
CC(C)N1CCN(C(=O)CN2CCc3cc(-c4cccc(OC(F)(F)F)c4)ccc3C2)CC1 [Compound 493, 2-[2-(4-isopropylpiperazin-1-yl)-2-oxoethyl]-6-[3-(trifluoromethoxy)phenyl]-1,2,3,4-tetrahydroisoquinoline]	≥ 90
CSc1cccc(-c2ccc3c(c2)CCN(CC(=O)N2CCN(C4CCCC4)CC2)C3)c1 [Compound 495, 2-[2-(4-cyclopentylpiperazin-1-yl)-2-oxoethyl]-6-[3-(methylthio)phenyl]-1,2,3,4-tetrahydroisoquinoline]	≥ 90
CSc1cccc(-c2ccc3c(c2)CCN(CC(=O)N2CCN(C4CCCCC4)CC2)C3)c1 [Compound 496, 2-[2-(4-cyclohexylpiperazin-1-yl)-2-oxoethyl]-6-[3-(methylthio)phenyl]-1,2,3,4-tetrahydroisoquinoline]	≥ 90
CSc1cccc(-c2ccc3c(c2)CCN(CC(=O)N2CCN(C(C)C)CC2)C3)c1 [Compound 497, 2-[2-(4-isopropylpiperazin-1-yl)-2-oxoethyl]-6-[3-(methylthio)phenyl]-1,2,3,4-tetrahydroisoquinoline]	≥ 90
COc1ccc(-c2ccc(-c3ccc4c(c3)CCN(CC(=O)N3CCN(C(C)C)CC3)C4)cc2)cc1 [Compound 501, 2-[2-(4-isopropylpiperazin-1-yl)-2-oxoethyl]-6-(4′-methoxybiphenyl-4-yl)-1,2,3,4-tetrahydroisoquinoline]	≥ 90
COc1ccc(-c2ccc3c(c2)CCN(CC(=O)N2CCN(C4CCCCC4)CC2)C3)cc1F [Compound 504, 2-[2-(4-cyclohexylpiperazin-1-yl)-2-oxoethyl]-6-(3-fluoro-4-methoxyphenyl)-1,2,3,4-tetrahydroisoquinoline]	≥ 90
COc1ccc(-c2ccc3c(c2)CCN(CC(=O)N2CCN(C(C)C)CC2)C3)cc1F [Compound 505, 6-(3-fluoro-4-methoxyphenyl)-2-[2-(4-isopropylpiperazin-1-yl)-2-oxoethyl]-1,2,3,4-tetrahydroisoquinoline]	≥ 90
COc1cc(F)c(-c2ccc3c(c2)CCN(CC(=O)N2CCN(C(C)C)CC2)C3)cc1F [Compound 508, 6-(2,5-difluoro-4-methoxyphenyl)-2-[2-(4-isopropylpiperazin-1-yl)-2-oxoethyl]-1,2,3,4-tetrahydroisoquinoline]	≥ 90
COc1ccc2cc(-c3ccc4c(c3)CCN(CC(=O)N3CCN(C(C)C)CC3)C4)ccc2c1 [Compound 512, 2-[2-(4-isopropylpiperazin-1-yl)-2-oxoethyl]-6-(6-methoxy-2-naphthyl)-1,2,3,4-tetrahydroisoquinoline]	≥ 90
CC(C)Oc1cccc(-c2ccc3c(c2)CCN(CC(=O)N2CCN(C(C)C)CC2)C3)c1 [Compound 515, 6-(3-isopropoxyphenyl)-2-[2-(4-isopropylpiperazin-1-yl)-2-oxoethyl]-1,2,3,4-tetrahydroisoquinoline]	≥ 90
COc1cc(-c2ccc3c(c2)CCN(CC(=O)N2CCN(C4CCCCC4)CC2)C3)cc(OC)c1OC [Compound 518, 2-[2-(4-cyclohexylpiperazin-1-yl)-2-oxoethyl]-6-(3,4,5-trimethoxyphenyl)-1,2,3,4-tetrahydroisoquinoline]	≥ 90
COc1cc(-c2ccc3c(c2)CCN(CC(=O)N2CCN(C(C)C)CC2)C3)cc(OC)c1OC [Compound 519, 2-[2-(4-isopropylpiperazin-1-yl)-2-oxoethyl]-6-(3,4,5-trimethoxyphenyl)-1,2,3,4-tetrahydroisoquinoline]	≥ 90

Continued, values first:

inhibition at 4 µM [%]	Compound
≥ 90	O=C(CN1CCc2cc(-c3ccc(Oc4ccccc4)cc3)ccc2C1)N1CCN(C2CCC2)CC1 [Compound 486, 2-[2-(4-cyclobutylpiperazin-1-yl)-2-oxoethyl]-6-(4-phenoxyphenyl)-1,2,3,4-tetrahydroisoquinoline]
≥ 90	O=C(CN1CCc2cc(-c3ccc(Oc4ccccc4)cc3)ccc2C1)N1CCN(C2CCCC2)CC1 [Compound 487, 2-[2-(4-cyclopentylpiperazin-1-yl)-2-oxoethyl]-6-(4-phenoxyphenyl)-1,2,3,4-tetrahydroisoquinoline]
≥ 90	O=C(CN1CCc2cc(-c3ccc(Oc4ccccc4)cc3)ccc2C1)N1CCN(C2CCCCC2)CC1 [Compound 488, 2-[2-(4-cyclohexylpiperazin-1-yl)-2-oxoethyl]-6-(4-phenoxyphenyl)-1,2,3,4-tetrahydroisoquinoline]
≥ 90	CC(C)N1CCN(C(=O)CN2CCc3cc(-c4ccc(Oc5ccccc5)cc4)ccc3C2)CC1 [Compound 489, 2-[2-(4-isopropylpiperazin-1-yl)-2-oxoethyl]-6-(4-phenoxyphenyl)-1,2,3,4-tetrahydroisoquinoline]
≥ 90	O=C(CN1CCc2cc(-c3cccc(OC(F)(F)F)c3)ccc2C1)N1CCN(C2CCC2)CC1 [Compound 490, 2-[2-(4-cyclobutylpiperazin-1-yl)-2-oxoethyl]-6-[3-(trifluoromethoxy)phenyl]-1,2,3,4-tetrahydroisoquinoline]
≥ 90	CSc1cccc(-c2ccc3c(c2)CCN(CC(=O)N2CCN(C4CCC4)CC2)C3)c1 [Compound 494, 2-[2-(4-cyclobutylpiperazin-1-yl)-2-oxoethyl]-6-[3-(methylthio)phenyl]-1,2,3,4-tetrahydroisoquinoline]
≥ 90	COc1ccc(-c2ccc(-c3ccc4c(c3)CCN(CC(=O)N3CCN(C5CCC5)CC3)C4)cc2)cc1 [Compound 498, 2-[2-(4-cyclobutylpiperazin-1-yl)-2-oxoethyl]-6-(4′-methoxybiphenyl-4-yl)-1,2,3,4-tetrahydroisoquinoline]
≥ 90	COc1ccc(-c2ccc(-c3ccc4c(c3)CCN(CC(=O)N3CCN(C5CCCC5)CC3)C4)cc2)cc1 [Compound 499, 2-[2-(4-cyclopentylpiperazin-1-yl)-2-oxoethyl]-6-(4′-methoxybiphenyl-4-yl)-1,2,3,4-tetrahydroisoquinoline]
≥ 90	COc1ccc(-c2ccc(-c3ccc4c(c3)CCN(CC(=O)N3CCN(C5CCCCC5)CC3)C4)cc2)cc1 [Compound 500, 2-[2-(4-cyclohexylpiperazin-1-yl)-2-oxoethyl]-6-(4′-methoxybiphenyl-4-yl)-1,2,3,4-tetrahydroisoquinoline]
≥ 90	COc1ccc2cc(-c3ccc4c(c3)CCN(CC(=O)N3CCN(C5CCCC5)CC3)C4)ccc2c1 [Compound 510, 2-[2-(4-cyclopentylpiperazin-1-yl)-2-oxoethyl]-6-(6-methoxy-2-naphthyl)-1,2,3,4-tetrahydroisoquinoline]
≥ 90	COc1ccc2cc(-c3ccc4c(c3)CCN(CC(=O)N3CCN(C5CCCCC5)CC3)C4)ccc2c1 [Compound 511, 2-[2-(4-cyclohexylpiperazin-1-yl)-2-oxoethyl]-6-(6-methoxy-2-naphthyl)-1,2,3,4-tetrahydroisoquinoline]
≥ 90	CC(C)Oc1cccc(-c2ccc3c(c2)CCN(CC(=O)N2CCN(C4CCCC4)CC2)C3)c1 [Compound 514, 2-[2-(4-cyclopentylpiperazin-1-yl)-2-oxoethyl]-6-(3-isopropoxyphenyl)-1,2,3,4-tetrahydroisoquinoline]

Source: patent US20110082130A1 (LIGAND PHARMACEUTICALS, INC., priority 2006, published 2011)
